In patent US20080070971A1, “Medical Use of Bilirubin and its Structural Analogues” (priority 2006, published 2008):
Like-named read-outs stand apart in the source and are kept apart here.

Tests used:
UDPGT1A1 = target: T1, UDPGT1A1 (Homo sapiens, UniProt P22309); assay: Inhibition of bilirubin glucuronidation by UDPGT; format: biochemical
T1 construct: purchased SigmaAldrich U7254
T1 sequence (P22309 26-533): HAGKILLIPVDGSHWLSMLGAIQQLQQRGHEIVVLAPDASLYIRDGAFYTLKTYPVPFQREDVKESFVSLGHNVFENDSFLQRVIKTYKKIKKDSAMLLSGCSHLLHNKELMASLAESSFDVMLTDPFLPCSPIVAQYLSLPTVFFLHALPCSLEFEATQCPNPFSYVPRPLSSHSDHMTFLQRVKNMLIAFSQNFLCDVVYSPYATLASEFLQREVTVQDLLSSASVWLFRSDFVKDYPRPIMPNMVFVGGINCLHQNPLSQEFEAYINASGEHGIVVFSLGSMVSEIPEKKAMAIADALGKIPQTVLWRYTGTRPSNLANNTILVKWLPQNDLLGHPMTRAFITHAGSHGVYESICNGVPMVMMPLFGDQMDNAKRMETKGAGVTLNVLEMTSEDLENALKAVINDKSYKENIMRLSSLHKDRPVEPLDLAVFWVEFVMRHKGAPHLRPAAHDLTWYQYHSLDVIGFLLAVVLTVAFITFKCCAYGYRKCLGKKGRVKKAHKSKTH
Excerpt: UDP-glucuronosyltransferase 1A1 isozenzyme (Cat. #U7254), uridine-5′-diphosphoglucuronic acid (UDPGA, #U5625), bilirubin (B), naringenin (N5893), octyl gallate (#48700) and quercetin (Q0125) were purchased from SigmaAldrich (St. Louis, Mo.). Bilirubin dimethyl ester (#B612-9), biliverdin dimethyl ester (#B610-9), biliverdin hydrocholoride (#B655-9), mesobilirubin (#M588-9), urobilin hydrochloride (#U590-1), and stercobilin hydrochloride (#S594-9) were purchased from Frontier Scientific Inc. (Logan, Utah).
The enzyme activity assay method was based on those of Adlard and Lathe (Biochem. J., 1970, 119:437-445). Incubation mixtures (total vol. 1.25 ml, pH 7.9) were prepared in tubes kept in ice and had the following composition: bilirubin (0.1 mM), UDP-glucuronic acid (0.25 mM), serum (5.8%, v/v), Mg2+ (5.0 mM), microsomal preparation (0.5-1.5 mg of protein), 10 mM tris-0.14 M KCl (pH 8.0), and 10% (v/v) dimethylsulphoxide. Incubation (10 min, 37° C.) was carried out with shaking (100 cycles/min). After incubation, tubes were placed in ice-water (5 min) and direct-reacting bilirubin was determined. All incubations were done in duplicate. Enzyme activity was expressed as μg of bilirubin conjugated/h per mg of protein. Differences from controls of more than 10% were regarded as significant.

HMG-CoA reductase = target: T2, HMG-CoA reductase (Homo sapiens, UniProt P04035); assay: HMG-CoA reductase assay in liver microsomes; format: biochemical; conditions: moderately high concentrations; 30 mg/L (FIG. 6)
T2 construct: from tissue; host or cells: liver microsomes
T2 sequence (P04035 1-888): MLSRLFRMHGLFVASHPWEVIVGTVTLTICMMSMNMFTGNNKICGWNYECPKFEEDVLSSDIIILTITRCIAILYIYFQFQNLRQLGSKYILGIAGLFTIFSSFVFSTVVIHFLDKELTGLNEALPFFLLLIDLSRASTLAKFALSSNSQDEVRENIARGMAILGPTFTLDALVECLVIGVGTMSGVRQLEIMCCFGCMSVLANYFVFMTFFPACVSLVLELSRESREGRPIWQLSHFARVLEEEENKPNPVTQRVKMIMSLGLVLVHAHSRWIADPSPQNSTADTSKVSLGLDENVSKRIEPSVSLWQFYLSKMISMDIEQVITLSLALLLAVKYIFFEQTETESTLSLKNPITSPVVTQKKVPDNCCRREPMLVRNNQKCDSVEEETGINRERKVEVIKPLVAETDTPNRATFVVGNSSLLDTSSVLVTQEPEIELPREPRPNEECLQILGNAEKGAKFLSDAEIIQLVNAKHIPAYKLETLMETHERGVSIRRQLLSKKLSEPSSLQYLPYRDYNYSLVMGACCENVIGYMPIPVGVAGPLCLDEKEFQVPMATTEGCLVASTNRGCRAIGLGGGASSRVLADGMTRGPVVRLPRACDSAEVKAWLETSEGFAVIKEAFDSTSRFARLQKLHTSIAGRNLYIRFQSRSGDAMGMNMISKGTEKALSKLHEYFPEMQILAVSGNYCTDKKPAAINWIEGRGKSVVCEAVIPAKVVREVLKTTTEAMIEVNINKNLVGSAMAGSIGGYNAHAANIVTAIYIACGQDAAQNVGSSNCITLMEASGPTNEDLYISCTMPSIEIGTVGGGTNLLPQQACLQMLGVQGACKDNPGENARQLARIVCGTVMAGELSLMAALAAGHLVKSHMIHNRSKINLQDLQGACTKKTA
Protocol: Liver microsomes, which are used to investigate cholesterol metabolism, were prepared as follows. Liver was homogenized in 50 mM Tris HCl buffer (pH 7.4), containing 0.3 M sucrose, 10 mM DTT, and 10 mM EDTA. The homogenate was centrifuged at 20,000×g for 15 min, and the supernatant was centrifuged at 100,000×g for 60 min. The resulting microsomal fraction was suspended in 3 ml of 0.1 M potassium phosphate buffer (pH 7.4), containing 1 mM EDTA and 5 mM DTT. Aliquots were immediately frozen in liquid nitrogen and stored at −20° C. until analysis.
Assay of HMG-CoA reductase. Microsomal suspensions of […], containing 5 mg protein, were preincubated for 5 min at 37° C. with […] of 0.1 M potassium phosphate buffer (pH 7.4), containing 1 mM EDTA and 12 mM glucose-6-phosphate. The assay was initiated by adding […] of cofactor-substrate solution (0.1 mM HMG-CoA, 3 mM MADPH, and 2 U/ml glucose-6-phosphate dehydrogenase). The incubation was performed at 37+ C. for 30 min and was terminated by the addition of […] of 1 M MaOH. After lactonization, the mevalonolactone was separated by thin layer chromatography. The eluate, which contained mevalonolactone, was collected in a scintillation vial. The radioactivity was then counted in a Packard 3320 scintillation spectrometer.

cyclooxygenase (COX) = assay: Cyclooxygenase (COX) inhibition; format: biochemical, human; conditions: concentration of 10 mg/L (FIG. 4)
Protocol: The activity of COX was determined by the procedure described in Assay Design's Enzyme Immunometric Assay (EIA) kit (Assay Design Inc., TiterZyme EIA cat.#900-094). Briefly, the kit uses a monoclonal antibody to human COX-II immobilized on a microtiter plate to bind the human COX in the standard or sample. After a short incubation the excess standard or sample is washed out and a rabbit polyclonal antibody to human COX labeled with the enzyme. Horseradish peroxidase is added. This labeled antibody binds to the human COX captured on the plate. After a short incubation the excess labeled antibody is washed out and substrate is added. The substrate reacts with the labeled antibody bound to the human COX captured on the plate. After a short incubation, the enzyme reaction is stopped and the color generated is read at 450 nm. The measured optical density is directly proportional to the concentration of human COX.
Purified cyclooxygenases (COX) were obtained from Kayman Chemical Company and used to examine the inhibitory effect of bilirubin with arachidonic acid as the substrate. High purity of bilirubin (SigmaAldrich #B4126), biliverdin (Frontier Scientific Inc., Cat. B655-9) and hemin (SigmaAldrich, #51280) were used as received.

[1] = Table 4, bilirubin 0.1 mM as substrate, read-out: Apparent Ki
[2] = read-out: inhibition constant (Ki)

Row | Compound | Ki (UDPGT1A1; [1]) | also measured
1 | C=CC1=C(C)/C(=C/c2[nH]c(Cc3[nH]c(/C=C4\NC(=O)C(C=C)=C4C)c(C)c3CCC(=O)O)c(CCC(=O)O)c2C)NC1=O [Bilirubin IIIα] | 1.5 µM | 
2 | C=CC1=C(C)C(=O)N/C1=C\c1[nH]c(Cc2[nH]c(/C=C3\NC(=O)C(C)=C3C=C)c(C)c2CCC(=O)O)c(CCC(=O)O)c1C [Bilirubin XIIIα] | 1.7 µM | 
3 | C=CC1=C(C)c2cc3[n-]c(cc4[n-]c(cc5nc(cc1n2)C(C)=C5C=C)c(C)c4CCC(=O)O)c(CCC(=O)O)c3C.O.[Fe+2] [Hematin, reference compound] |  | inhibition of HMG-CoA reductase activity (comparison) (HMG-CoA reductase): strongly inhibit
4 | C=CC1=C(C)/C(=C/C2=NC(=C/c3[nH]c(/C=C4\NC(=O)C(C)=C4C=C)c(C)c3CCC(=O)O)/C(CCC(=O)O)=C2C)NC1=O [biliverdin, 2,7,13,17-tetramethyl-1,19-dioxo-3,18-divinyl-1,19,22,24-tetrahydro-21H-biline-8,12-dipropanoic acid] | 19.9 µM | inhibition of HMG-CoA reductase activity (comparison) (HMG-CoA reductase): strongly inhibit
5 | (±)-2,3-Dihydro-5,7-dihydroxy-2-(4-hydroxyphenyl)-4H-1-benzopyran-4-one; 4′,5,7-Trihydroxyflavanone [Naringenin] | 4.8 µM | Ki (UDPGT1A1; [2]): 5 µM; IC50 (UDPGT1A1; under the testing conditions): ~16 µM
6 | hemin |  | reducing COX activity (comparison) (cyclooxygenase (COX)): effective in reducing COX activity

The next lines start with results.

Row | Ki (UDPGT1A1; [1]) | Compound | also measured
7 | 1.3 µM | C=CC1=C(C)C(OC)N/C1=C\c1[nH]c(Cc2[nH]c(/C=C3\NC(OC)C(C=C)=C3C)c(C)c2CCC(=O)O)c(CCC(=O)O)c1C (stereo not shown) [DimethoxybilirubinIXα] | Ki (UDPGT1A1; [2]): ~1 µM
8 | 2.3 µM | CCC1=C(C)/C(=C/c2[nH]c(Cc3[nH]c(/C=C4\NC(=O)C(C)=C4CC)c(C)c3CCC(=O)O)c(CCC(=O)O)c2C)NC1=O [Mesobilirubin IXα, 3,18-diethyl-2,7,13,17-tetramethyl-1,19-dioxo-1,19,22,24-tetrahydro-21H-biline-8,12-dipropanoic acid] | 
9 | 7.6 µM | CCCCCCCCOC(=O)c1cc(O)c(O)c(O)c1 [Octyl gallate ester] | 
